# Assays:
# [1] = Plasma stability (UPLC-MS); type: in vitro ADME, human; details: 37°C
# Description: To assess whether the β32_33 peptide, PMT, PMT-8a and PMT-8b peptide-mimetics are stable in blood, we set up a chromatographic assay able to evaluate compound concentration after incubation in human plasma.
# Four different samples from healthy volunteers were used. Blood was drawn by venepuncture in vacutainer containing EDTA as an anticoagulant. Plasma was separated by centrifugation and immediately used for the experiments. Each compound was dissolved in 500 μL plasma at a final concentration of 0.2 mM and split into two aliquots, one of which was immediately analysed to assess the basal compound level (T0); the other was incubated at 37°C under gentle shaking, and the amount of each compound was measured at different time points (i.e., 1.5, 3, 6 and 72 h).
# To perform chromatographic analyses, the samples were treated with 3 volumes of acetonitrile containing 1% formic acid and then extracted by using the Ostro™ pass-through sample preparation system to remove proteins and phospholipids. Samples were dried under vacuum, resuspended in 100 μL of 0.1% formic acid containing 5% acetonitrile, and then injected directly onto the chromatographic column.
# Chromatographic analyses were performed on a Water Acquity H-Class UPLC system (Waters, Milford, MA, United States), including a quaternary solvent manager (QSM), a sample manager with a flow-through needle system (FTN), a photodiode array detector (PDA) and a single-quadruple mass detector with electrospray ionization source (ACQUITY QDa). Analyses were performed on a reverse phase C18 column (75 mm × 3.2 mm i. d., 2.5 μm particle size). The mobile phase was solvent A, 0.1% formic acid in water, and solvent B, 0.1% formic acid in acetonitrile. The flow rate was 0.5 mL/min, the column temperature was set at 25°C and the elution was performed by linearly increasing the concentration of solvent B up to 70% in 7 min. Mass spectrometric detection was performed in the positive electrospray ionization mode, using nitrogen as the nebulizer gas. Analyses were performed in the Total Ion Current (TIC) mode with a mass range of 100–1200 m/z. The capillary voltage was 0.8 kV, cone voltage 8 V, ion source temperature 120°C and probe temperature 600°C. Quantification was performed by Selected Ion Recording (SIR): at m/z = 917.88, corresponding to the [M+2H]^2+ ion obtained from either β32_33 peptide or PMT; at m/z = 961.42, corresponding to the [M + H] ^+ obtained from PMT-8a; and at m/z = 869.48, corresponding to the [M + H]^+ ion obtained from PMT-8b.
# [2] = system: control cells (WT and L-8344 cybrids); assay: Cell viability in galactose medium (Trypan blue dye exclusion); type: cell-based, human; details: WT and L-8344 cells; 24 h galactose medium
# Description: (§1) Previously established osteosarcoma-derived (143B.TK-) cybrid cell lines from patients, which bear either the m.3243A>G mutation in mt-tRNA^Leu(UUR) or the m.8344A>G mutation in mt-tRNA^Lys and controls ([Perli et al., 2014]; [Perli et al., 2016]; [Perli et al., 2020]) were used.
# (§2) Cybrid cells were cultured in Dulbecco’s modified Eagle’s medium (DMEM), supplemented with 4.5 g/L D-glucose, 10% foetal bovine serum (FBS), 2 mM L-glutamine, 50 μg/ML uridine, 100 U/mL penicillin, and […] (referred to as glucose medium) in a humidified atmosphere of 95% air and 5% CO2 at 37°C. For cell viability experiments, cells were grown either in glucose medium or in glucose-free DMEM, supplemented with 5 mM galactose, […], and 10% FBS (referred to as galactose medium). The reason for using the latter medium is that a pathological phenotype can be appreciated in cells growing on galactose, which forces cells to rely on mitochondrial respiration, but not in cells growing on glucose.
# (§3) To assess growth capability, cells were harvested and seeded at 30 × 10^4 in 60 mm dishes in glucose medium for 24 h with the addition of one of the compounds. Cells were switched in glucose or galactose and, after 24 h, cell viability was measured by the Trypan blue dye exclusion assay. Cells were harvested with 0.25% trypsin and 0.2% EDTA, washed, suspended in PBS in the presence of Trypan blue solution (Sigma–Aldrich) at 1:1 ratio and counted using a hemocytometer. The number of viable cells in the galactose medium was expressed as a percentage of the number of cells in glucose medium.
# [3] = system: m.3243A>G mutant cybrids; assay: as above; type: cell-based, human; details: 5 µM; 24 h galactose medium; compared with non-treated mutant cells; at least three independent experiments
# Description: as §1, §2, §3
# [4] = system: m.8344A>G mutant cybrids (H-8344); assay: as above; type: cell-based, human; details: 5 µM; 24 h galactose medium; compared with non-treated mutant cells; at least three independent experiments
# Description: as §1, §2, §3
smiles,measurement,setting,value
CC[C@@H](C)[C@@H](NC(=O)[C@@H](CC(C)C)NC(=O)[C@@H](C)NC(=O)[C@H](NC(=O)[C@@H](CCCNC(=N)N)NC(=O)[C@H]1CCCN1C(=O)[C@@H](CO)NC(=O)[C@@H](CC(C)C)NC(=O)[C@@H](Cc1ccccc1)NC(=O)[C@@H](CO)NC(=O)[C@@H](CCCCN)NC(=O)[C@H](N)CCCCN)[C@H](C)O)C(=O)N[C@H](CC(N)=O)C(=O)N[C@H](Cc1ccccc1)C(=O)N[C@H](CC(C)C)C(=O)N[C@@H](C(N)=O)C(C)C [PMT],"remaining at 72 h, 0.2 mM","[1]; 72 h, human EDTA plasma from four healthy volunteers, gentle shaking, UPLC-MS (SIR), peak area vs time 0, read-out: Amount of detectable compound after incubation with human plasma",~25%
same,Plasma stability compared with β32_33 peptide,"[1]; all time points (1.5, 3, 6, 72 h), human plasma, 0.2 mM, UPLC-MS",significantly higher plasma stability
same,Cell viability of control cells,[2],do not affect
same,Cell viability (viable cells in galactose as % of glucose medium),[3],significant improvement of cell viability
same,Cell viability (viable cells in galactose as % of glucose medium),[4],significant improvement of cell viability

# Source: PMC12336229, “Peptide-mimetics derived from leucyl-tRNA synthetase are potential agents for the therapy of mt-tRNA related diseases” (Frontiers in Pharmacology, 2025)
